Laboratory results published in patent publication US10239878B2, “Macrocyclic ligands with pendant chelating moieties and complexes thereof” (LUMIPHORE, INC., priority 2016, dated 2019).

Experiments:
Type in all cases: physicochemical
[1] = Photophysical characterization of Eu complexes (UV-vis absorption, quantum yield, lifetime)
Protocol: The europium complexes of ligands 16, 29, 33, 40, and 43 were prepared by separately dissolving each ligand (2 mg) into methanol (200 μL). Excess europium chloride hexahydrate (˜5 equivalents) was dissolved in methanol (200 μL) and the full volume was added to each of the ligand solutions. The solvent was removed, and the residue was dissolved into DMF (50 μL). The europium complexes were then purified by semi-prep HPLC on an Agilent 1260 Infinity instrument using an Eclipse XDB-C18 column (5 μm, 9.4×250 mm). The mobile phase was 10 to 30% acetonitrile in water containing 0.1% trifluoroacetic acid. The volatiles were removed from the HPLC eluents under vacuum, and the residues were separately dissolved into methanol (500 μL) to give methanolic stock solutions of each europium complex with greater than 98% purity. A few drops of these methanolic solutions were evaporated to dryness, and then the residue was dissolved into TBS buffer at a concentration of ca. 3 μM to make aqueous stock solutions (20 mL) with an absorbance of 0.05 (1 cm path length) at 365 nm. Five dilutions (1/6, 2/6, 3/6, 4/6, and 5/6) were made from these aqueous stock solutions to yield six samples with evenly spaced concentrations (3 mL volume each). Quinine sulfate dissolved in 0.05 M sulfuric acid was similarly diluted to a final absorbance of 0.05 at 365 nm, and this solution was similarly (1/6, 2/6, 3/6, 4/6, and 5/6) diluted to afford six quinine sulfate reference samples of evenly spaced concentration. Quinine sulfate in 0.05 M sulfuric acid was used as the quantum yield standard (Φ=0.508). By measuring the absorbance and luminescence of these dilute solutions, the quantum yields of the new Eu complexes were determined. A 5 cm path-length quartz cell was used to measure the absorbance of these dilute solutions in order to improve the UV-vis signal-to-noise. Steady state photoluminescence measurements were collected in a 1 cm fluorescence cuvette at 365 nm excitation wavelength, 1 nm resolution, 10 nm excitation slit width, 1 nm emission slit width, and 0.2 sec integration time on an instrument that has been described elsewhere (D'Aléo, A.; Moore, E. G.; Szigethy, G.; Xu, J.; Raymond, K. N. Inorg. Chem. 2009, 48, 9316.). Absorption spectra were measured at 1 nm resolution, and the absorbance of each sample was taken as the average absorbance measured from 360-370 nm to reflect the 10 nm excitation slit width used for luminescence measurements. The data derived from these experiments, and from the titration experiments in example 11 are tabulated below.

[2] = 250 mM DTPA competition experiments (kinetic stability of Eu complexes); conditions: 33⋅Eu versus 16⋅Eu, 43⋅Eu versus 40⋅Eu
Excerpt: From these experiments, it is clear that 43⋅Eu is remarkably stable to a wide range of competitive metal ions and chelators. The competitor concentrations mentioned above are a good way to assess the kinetic stability of the complex in various assay conditions. DTPA is an exceptionally good ligand for lanthanide ions, and thus it is not typically used in practical assays. However, DTPA competition offers an excellent way to benchmark the kinetic stability of the complexes reported here. […] In order to compare the kinetic stability of the complexes reported here, a 750 mM stock solution (25 mL) of DTPA was prepared by dissolving DTPA (7.375 g, 18.75 mmol) into water (20 mL) containing potassium hydroxide (5.26 g, 93.75 mmol). The pH of the DTPA solution was adjusted to pH=7.6 by addition of concentrated hydrochloric acid, and then the solution was diluted to a final volume of 25 mL to give a 750 mM DTPA stock solution at pH=7.6. HPLC purified europium complexes of 16, 29, 33, 40, and 43 were separately diluted to 11 μM in TBS buffer, pH=7.6. For each DTPA competition experiment, 1 mL of the 750 mM DTPA solution was added to 2 mL of the 11 μM europium complex solution. The luminescence at 612 nm (365 nm excitation) was monitored for these five separate solutions containing 250 mM DTPA and 7.1 μM of each europium complex as a function of time.

[3] = Stability of 43⋅Eu luminescence in the presence of ca. 25 mM competitors
Protocol: In order for a luminescent metal complex to be useful in a practical sense, it must be stable in the presence of common competitive metal cations and chelating ligands. We measured the stability of 43 ⋅Eu (ca. 7 μM) dissolved in TBS buffer, with various competitors present at ca. 25 mM concentration. Specifically, manganese dichloride tetrahydrate (14.8 mg, 74.8 μmol) was dissolved into TBS buffer (100 μL), and added to an aliquot of 43⋅Eu (3 mL), making the final concentration of Mn(II) 24.1 mM. Magnesium chloride hexahydrate (33.6 mg, 165 μmol) was dissolved into TBS buffer (200 μL), and 100 μL was added to an aliquot of 43⋅Eu (3 mL), making the final concentration of Mg(II) 26.7 mM. Calcium chloride hexahydrate (55.8 mg, 255 μmol) was dissolved into TBS buffer (300 μL), and 100 μL was added to an aliquot of 43 ⋅Eu (3 mL), making the final concentration of Ca(II) 27.4 mM. For DTPA, first KOH (95.9 mg, 1.71 mmol) was dissolved into 1 mL of water, and 389 μL of this basic solution (5 equivalents) was used to dissolve DTPA (52.3 mg, 133 μmol). Then, 219 μL of this DTPA solution was added to an aliquot of 43⋅Eu (3 mL), making the final concentration of DTPA 23.4 mM. EDTA (0.5 M, pH=8, 150 μL) was added to an aliquot of 43 ⋅Eu (3 mL), making the final concentration of EDTA 23.8 mM. For phosphate competition, the methanolic stock of 43⋅Eu was diluted to ca. 7 μM in 25 mM phosphate buffer (pH=8).

ε260/ε at λmax ([1]; TBS buffer, pH 7.6): 1.52
ε280/ε at λmax ([1]; TBS buffer, pH 7.6): 1.20
λmax ([1]; TBS buffer, pH 7.6): 358 nm
Φtotal at 365 nm excitation ([1]; TBS buffer, quinine sulfate as quantum yield standard): 28.8%
Lifetime ([1]; luminescence, HPLC purified Eu complexes): 734 μs
reduction in kinetic stability upon introduction of the spermine-based sidearm [2]: ~2 fold
change in sample brightness ([3]; 25 mM phosphate buffer pH=8, 24 hours): no detectable change
change in sample brightness ([3]; Ca(II) 27.4 mM, TBS buffer, 24 hours): no detectable change
brightness remaining (of the original brightness) ([3]; DTPA 23.4 mM, TBS buffer, after 24 hours): 83%
brightness remaining ([3]; EDTA 23.8 mM, TBS buffer, 24 hours): 96%
change in sample brightness ([3]; Mg(II) 26.7 mM, TBS buffer, 24 hours): no detectable change
brightness remaining ([3]; Mn(II) 24.1 mM, TBS buffer, 24 hours): 89%
SMILES: NCCOCCNC(=O)C1CCCN(C(=O)c2cccc(=O)n2[O-])CCCNC(=O)c2ccc(n([O-])c2=O)C(=O)NC2COCC2NC(=O)c2ccc(c(=O)n2[O-])C(=O)NCCCN1C(=O)c1cccc(=O)n1[O-].[Eu+3] (mixture of isomers) [43⋅Eu]
